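Each compound was tested at five concentrations against cells in 96-well plates for 48 hours. GI50 marks 50% less growth.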 Activity calls are given as the source filed them. No stated cut-off is given here; in the data, active = GI50 up to about 1.1 µM and inactive = higher.
Experiments:
Test in all cases: NCI-60 cell line screen, 48 h
Malme-3M = system: Malme-3M
OVCAR-8 = system: OVCAR-8
CCRF-CEM = system: CCRF-CEM
SN12C = system: SN12C
NCI/ADR-RES = system: NCI/ADR-RES
EKVX = system: EKVX
SK-MEL-28 = system: SK-MEL-28
OVCAR-4 = system: OVCAR-4
UO-31 = system: UO-31
NCI-H23 = system: NCI-H23
NCI-H226 = system: NCI-H226
SK-MEL-2 = system: SK-MEL-2
A549 = system: A549
TK-10 = system: TK-10
786-0 = system: 786-0
UACC-62 = system: UACC-62
M14 = system: M14
MDA-MB-435 = system: MDA-MB-435
LOX IMVI = system: LOX IMVI
A498 = system: A498

Measured: GI50

O=C1c2ccccc2-c2nc3ccncc3n21
inactive: Malme-3M > 100 µM | OVCAR-8 > 100 µM | CCRF-CEM > 100 µM | SN12C > 100 µM | NCI/ADR-RES > 100 µM | EKVX > 100 µM | SK-MEL-28 > 100 µM | OVCAR-4 > 100 µM | UO-31 > 100 µM | NCI-H23 > 100 µM | NCI-H226 > 100 µM | SK-MEL-2 > 100 µM | A549 > 100 µM | TK-10 > 100 µM | 786-0 > 100 µM | UACC-62 > 100 µM

CC(=O)Nc1ccc(/N=N\c2c(O)c(S(=O)(=O)O)cc3cc(S(=O)(=O)O)ccc23)cc1
inactive: Malme-3M > 100 µM | OVCAR-8 > 100 µM | SN12C > 100 µM | NCI/ADR-RES > 100 µM | EKVX > 100 µM | SK-MEL-28 > 100 µM | OVCAR-4 > 100 µM | UO-31 > 100 µM | NCI-H23 > 100 µM | NCI-H226 > 100 µM | SK-MEL-2 > 100 µM | A549 > 100 µM | M14 > 100 µM | MDA-MB-435 > 100 µM | TK-10 > 100 µM | 786-0 > 100 µM | UACC-62 > 100 µM

CC(=O)C(C)(C)CCC(C)(C)C(C)=O
inactive: LOX IMVI > 100 µM | Malme-3M > 100 µM | OVCAR-8 > 100 µM | CCRF-CEM > 100 µM | SN12C > 100 µM | NCI/ADR-RES > 100 µM | EKVX > 100 µM | SK-MEL-28 > 100 µM | OVCAR-4 > 100 µM | UO-31 > 100 µM | NCI-H23 > 100 µM | NCI-H226 > 100 µM | SK-MEL-2 > 100 µM | A549 > 100 µM | M14 > 100 µM | TK-10 > 100 µM | 786-0 > 100 µM | UACC-62 > 100 µM

COc1cc(-c2[o+]c3cc(O)cc(OC4OC(CO)C(O)C(O)C4O)c3cc2OC2OC(CO)C(O)C(O)C2O)cc(OC)c1O (stereo unspecified)
inactive: LOX IMVI > 100 µM | Malme-3M > 100 µM | A498 > 100 µM | OVCAR-8 > 100 µM | CCRF-CEM 70.1 µM | SN12C > 100 µM | EKVX > 100 µM | SK-MEL-28 > 100 µM | OVCAR-4 > 100 µM | UO-31 > 100 µM | NCI-H23 > 100 µM | NCI-H226 > 100 µM | SK-MEL-2 > 100 µM | A549 > 100 µM | M14 > 100 µM | MDA-MB-435 > 100 µM | TK-10 > 100 µM | 786-0 > 100 µM | UACC-62 > 100 µM

CCCC(CCC(N)=O)(CCC(N)=O)[N+](=O)[O-]
inactive: Malme-3M > 100 µM | OVCAR-8 > 100 µM | CCRF-CEM > 100 µM | SN12C > 100 µM | NCI/ADR-RES > 100 µM | EKVX > 100 µM | UO-31 > 100 µM | NCI-H23 > 100 µM | NCI-H226 > 100 µM | SK-MEL-2 > 100 µM | A549 > 100 µM | M14 > 100 µM | MDA-MB-435 > 100 µM | TK-10 > 100 µM | 786-0 > 100 µM | UACC-62 > 100 µM

CNC(=O)N1CCN(C(=O)NC)CCN(C(=O)NC)CC1
inactive: LOX IMVI > 100 µM | Malme-3M > 100 µM | A498 > 100 µM | OVCAR-8 > 100 µM | CCRF-CEM > 100 µM | SN12C > 100 µM | NCI/ADR-RES > 100 µM | EKVX > 100 µM | SK-MEL-28 > 100 µM | UO-31 > 100 µM | NCI-H23 > 100 µM | NCI-H226 > 100 µM | SK-MEL-2 > 100 µM | A549 > 100 µM | M14 > 100 µM | TK-10 > 100 µM | 786-0 > 100 µM | UACC-62 > 100 µM

CSc1nc(=O)cnn1C
inactive: Malme-3M > 100 µM | OVCAR-8 > 100 µM | CCRF-CEM > 100 µM | SN12C > 100 µM | NCI/ADR-RES > 100 µM | EKVX > 100 µM | SK-MEL-28 > 100 µM | OVCAR-4 > 100 µM | UO-31 > 100 µM | NCI-H23 > 100 µM | NCI-H226 > 100 µM | SK-MEL-2 > 100 µM | A549 > 100 µM | M14 > 100 µM | MDA-MB-435 > 100 µM | TK-10 > 100 µM | 786-0 > 100 µM | UACC-62 > 100 µM

CN(C(=O)C12C3C4C1C1C2C3C41C(O)C(C)(C)C)C(C)(C)C (stereo unspecified)
inactive: LOX IMVI > 100 µM | Malme-3M > 100 µM | A498 > 100 µM | OVCAR-8 > 100 µM | CCRF-CEM > 100 µM | SN12C > 100 µM | EKVX > 100 µM | SK-MEL-28 > 100 µM | OVCAR-4 > 100 µM | UO-31 > 100 µM | NCI-H23 > 100 µM | NCI-H226 > 100 µM | SK-MEL-2 > 100 µM | A549 > 100 µM | M14 > 100 µM | TK-10 > 100 µM | 786-0 > 100 µM | UACC-62 > 100 µM

COC(=O)C(=O)CC(=O)CCn1ncc(Cl)c(Cl)c1=O
inactive: LOX IMVI 7.16 µM | Malme-3M 18.7 µM | A498 32.8 µM | OVCAR-8 13.3 µM | CCRF-CEM 3.59 µM | SN12C 16.9 µM | EKVX 19.5 µM | SK-MEL-28 14 µM | OVCAR-4 4.62 µM | UO-31 18.1 µM | NCI-H23 13.2 µM | NCI-H226 24.2 µM | SK-MEL-2 18.1 µM | A549 19.9 µM | M14 14.7 µM | TK-10 47.4 µM | 786-0 21.7 µM | UACC-62 10 µM

COc1ccc(C2Oc3ccc(Cl)cc3C=C2[N+](=O)[O-])cc1 (stereo unspecified)
inactive: LOX IMVI > 100 µM | Malme-3M > 100 µM | OVCAR-8 > 100 µM | CCRF-CEM > 100 µM | SN12C > 100 µM | NCI/ADR-RES > 100 µM | EKVX > 100 µM | SK-MEL-28 > 100 µM | OVCAR-4 > 100 µM | UO-31 > 100 µM | NCI-H23 > 100 µM | A549 > 100 µM | M14 > 100 µM | MDA-MB-435 > 100 µM | TK-10 > 100 µM | 786-0 > 100 µM | UACC-62 > 100 µM

CN(C)CCCN1c2ccc([N+](=O)[O-])cc2CCc2cc([N+](=O)[O-])ccc21
inactive: LOX IMVI 16.9 µM | Malme-3M 10.3 µM | OVCAR-8 15.5 µM | SN12C 15.8 µM | NCI/ADR-RES 14.3 µM | EKVX 14.1 µM | SK-MEL-28 15.3 µM | UO-31 22.5 µM | NCI-H226 15.1 µM | SK-MEL-2 20.7 µM | A549 17.9 µM | M14 16.7 µM | MDA-MB-435 13.4 µM | TK-10 11.3 µM | 786-0 12.1 µM | UACC-62 13.5 µM

Source: ChEMBL document CHEMBL1201862, “PubChem BioAssay data set” (2004)
